Experimental data: patent publication US20140154332A1, “FORMULAS COMPRISING HIGHLY SOLUBLE ELEMENTS AND VITAMIN FOR THE PREVENTION AND AMELIORATION OF OSTEOPOROSIS” (SINOVEDA CANADA, INC., priority 2011, published 2014)

Columns and labels:
[1] = humans; cited from earlier work
[2] = dual isotope techniques; cited from earlier work
[3] = Calcium, magnesium and zinc balance study in rats receiving normal diet (cumulative net percentage, body weight, plasma levels); conditions: for Body weight of rats: normal calcium diet, n = 5; for Cumulative net percentage of calcium / Cumulative net percentage of zinc / Net accumulative percentage of magnesium: normal diet, n = 5 per group
Source text: (§1) Male Sprague-Dawley rats (about 6-7 weeks), with an initial weight between 220 g to 250 g, were randomly divided into different treatment groups. All the rats were housed in individual metabolic cages in a temperature-controlled room. Each rat received free access to the normal diet (Table 34) before the experiment. Both normal and calcium free diets (Table 34) were used in this set of studies. De-ionized water was provided ad libitum. All the rats were weighed before treatment.
(§2) Two sets of studies were performed: a normal diet and calcium free diet. In each study, there were seven treatment groups. […] Rats participating in the normal diet study received normal diet ad libitum throughout. Rats participating in the group of calcium free diet received the calcium free food ad libitum starting five days before and throughout treatment. In both study groups, animals received one dose a day for five days. Amounts of calcium, magnesium and zinc in individual formulation and in each diet were determined using ICP-OES. Values of dosage and dietary intake were measured for the calculation of elemental balance. […] Daily elemental dosages, similar to that of human's, are 53.14 mg/kg for calcium, 0.38 to 55 mg/kg/day for magnesium and 0.017 to 2.5 mg/kg/day for zinc. […] The vehicle for preparing each dose was de-ionized water. The concentration of calcium in all dosage preparations was 15.94 mg/mL. One mL of each preparation was administered by gavage. Body weight, elemental dosage and diet consumption were recorded daily.
(§3) Animals were housed individually in a metabolic cage five days before the study. Food consumption was evaluated daily. Urine and feces were collected daily for four days and the content of calcium, magnesium and zinc was determined. On Day 5, each animal received its treatment. These treatments were administered once a day for four days. After the last treatment, each animal was anesthetized shortly before peak elemental blood concentration was achieved. Blood was collected using a heparinized syringe via cardiac puncture. Immediately after blood collection, the animal was then sacrificed with an overdose of isoflourane. Each blood sample was centrifuged at 1900 rpm at room temperature; plasma was harvested and stored at −20° C. until analysis. Urine was measured daily; it was diluted with de-ionized water, filtered and an aliquot was stored at −20° C. until analysis. Daily fecal output was collected and lyophilized. Each sample was weighed and digested using a mixture of three volume of nitric acid and one volume of perchloric acid. For every gram of dried feces, 10 mL of acid mixture was added. Each sample was digested for three days. The volume of the digested sample was measured and an aliquot of the digest was stored at −20° C. until analysis. The content of calcium, magnesium and zinc in plasma, feces and urine were determined using ICP-OES.
(§4) Daily calcium balance was calculated using equation 1:
(§5) Ca Balance=total Ca intake(dose and dietary intake)−Ca excreted in urine−Ca excreted in feces (1)
(§6) While, percentage of Ca balance was determined using equation 2:
(§7) % Ca balance=Ca balance/(total Ca intake)×100% (2)
(§8) Cumulated calcium balance and % cumulated net calcium balance were calculated using equations (1) and (2), except, the sum of daily intake and excretion was used for calculation. The balance for magnesium and zinc was also calculated using the concept of equations (1) and (2). Cumulated elemental balance and % cumulated net elemental balance were calculated in a similar fashion as described above.
(§9) All results were analyzed using two-way ANOVA. […] The data are presented as mean±S.D. and mean±S.E.M. in tables and figures, respectively.

[4] = 25 mg calcium load, 45Ca; cited from earlier work
[5] = Calcium, magnesium and zinc balance study in rats receiving calcium free diet (cumulative net percentage, body weight, plasma levels); conditions: for Cumulative net percentage of calcium / Cumulative net percentage of magnesium / Cumulative net percentage of zinc: n = 5 per group
Source text: as §1, §2, §3, §4, §5, §6, §7, §8, §9

[6] = rats; cited from earlier work

O=C([O-])[O-].[Ca+2] [calcium carbonate]
average amount absorbed [1]: 24%

[O]=[Zn] [zinc oxide]
bioavailability of zinc [2]: approximately 24%

Calcium Acetate [Ca ACE]
Body weight of rats ([3]; Day 1, mean ± S.D.): 242.0 ± 7.4 g | Body weight of rats ([3]; Day 2, mean ± S.D.): 237.0 ± 12.5 g | Body weight of rats ([3]; Day 3, mean ± S.D.): 239.2 ± 13.9 g | Body weight of rats ([3]; Day 4, mean ± S.D.): 238.6 ± 13.9 g | Body weight of rats ([3]; Day 5, mean ± S.D.): 244.0 ± 12.8 g | Cumulative net percentage of calcium ([3]; Day 1, mean ± S.D.): 14.4 ± 24.0% | Cumulative net percentage of zinc ([3]; Day 1, mean ± S.D.): 27.5 ± 16.0^% | Net accumulative percentage of magnesium ([3]; Day 1, mean ± S.D.): 16.7 ± 17.2^% | Cumulative net percentage of calcium ([3]; Day 2, mean ± S.D.): 26.9 ± 9.0% | Cumulative net percentage of zinc ([3]; Day 2, mean ± S.D.): 40.9 ± 7.3% | Net accumulative percentage of magnesium ([3]; Day 2, mean ± S.D.): 29.9 ± 3.8% | Cumulative net percentage of calcium ([3]; Day 3, mean ± S.D.): 30.3 ± 4.9% | Cumulative net percentage of zinc ([3]; Day 3, mean ± S.D.): 45.6 ± 5.9% | Net accumulative percentage of magnesium ([3]; Day 3, mean ± S.D.): 34.3 ± 2.5% | Cumulative net percentage of calcium ([3]; Day 4, mean ± S.D.): 31.9 ± 3.0% | Cumulative net percentage of zinc ([3]; Day 4, mean ± S.D.): 48.4 ± 4.4% | Net accumulative percentage of magnesium ([3]; Day 4, mean ± S.D.): 37.7 ± 2.7% | Bioavailability of calcium [4]: 45% | Cumulative net percentage of calcium ([5]; Day 1, mean ± S.D.): −30.6 ± 51.3% | Cumulative net percentage of magnesium ([5]; Day 1, mean ± S.D.): −197.2 ± 105.2% | Cumulative net percentage of zinc ([5]; Day 1, mean ± S.D.): −107.1 ± 85.5% | Body weight of rats ([5]; Day 1, n = 5): 202.4 ± 9.3 g | Cumulative net percentage of calcium ([5]; Day 2, mean ± S.D.): −9.88 ± 26.5% | Cumulative net percentage of magnesium ([5]; Day 2, mean ± S.D.): −150.4 ± 88.9% | Cumulative net percentage of zinc ([5]; Day 2, mean ± S.D.): −77.7 ± 59.0% | Body weight of rats ([5]; Day 2, n = 5): 194.8 ± 9.3^$ g | Cumulative net percentage of calcium ([5]; Day 3, mean ± S.D.): 4.88 ± 24.0% | Cumulative net percentage of magnesium ([5]; Day 3, mean ± S.D.): −115.3 ± 62.7% | Cumulative net percentage of zinc ([5]; Day 3, mean ± S.D.): −65.7 ± 66.7% | Body weight of rats ([5]; Day 3, n = 5): 196.8 ± 10.9 g | Cumulative net percentage of calcium ([5]; Day 4, mean ± S.D.): 11.1 ± 20.0% | Cumulative net percentage of magnesium ([5]; Day 4, mean ± S.D.): −93.6 ± 37.2% | Cumulative net percentage of zinc ([5]; Day 4, mean ± S.D.): −50.5 ± 46.4% | Body weight of rats ([5]; Day 4, n = 5): 193.4 ± 11.9^$ g | Body weight of rats ([5]; Day 5, n = 5): 188.0 ± 12.2^$ g | magnesium balance ([5]; rats): net loss of magnesium

Magnesium gluconate
bioavailability of magnesium [6]: highest value

calcium ascorbate
Bioavailability of calcium [4]: 70%
